Read-outs that look alike come from different tables or passages of the source.
Key:
[1] = test system: T98G; test: CellTiter-Glo cell proliferation assay, T98G; format: cell-based
Experimental: (§1) CellTiter-Glo® Luminescent Cell Viability assay (with Promega CellTiter 96® Luminescent CellTiter-Glo® kit) was used to study the proliferation inhibition by test compounds. Compounds were resuspended in DMSO to make a 25 mM stock suspension. Cells of cancer cell lines or normal tissues were seeded in 96-well plates at 1,500 to 5,000 cells/well overnight. Compounds were 2- or 3-fold diluted serially to obtain 10 concentrations. Then, the drugs were added to the cell wells by Bravo (Agilent) and incubated for 72 hours. The cells were lysed by adding CellTiter-Glo® Reagent (per manufacturer's instructions) and subsequently, the luminescence was read using EnVision® (PerkinElmer).
(§2) The percent of growth was calculated as follows. DMSO-treated cells were employed as vehicle control (High control, HC) and culture medium alone was employed as background (Low control, EC). % growth=100×(Lum sample−Lum EC)/(Lum HC−Lum EC). The ICso was calculated by concentration-response curve fitting using Graphpad Prism.
(§3) Hematological cancer cell lines tested included OCI-AML3, MV-4-11, KG-1, Kasumi-1, K562, THP-1; solid cancer cell lines tested included U87MG, U251, T98G, LN229, A172, H460, H2009, A549; normal cell lines tested included HCN2 and 3T3-L1. […] However, they were not toxic to in vitro cultured normal cells.

[2] = test system: U251; test: CellTiter-Glo cell proliferation assay, U251; format: cell-based
Experimental: as §1, §2, §3

[3] = test system: LN-229; test: CellTiter-Glo cell proliferation assay, LN-229; format: cell-based
Experimental: as §1, §2, §3

[4] = target: T1, XPO1 (Homo sapiens, UniProt O14980); test: REV-GFP translocation assay in U2OS cells; format: cell-based; parameters: endogenous in cells; host or cells: U2OS cells stably expressing REV-GFP (clones from HD Biosciences); settings: for IC50: Table 10
Experimental: LTD in China, and cells were cultured with growth medium. […] The highest Leptomycin B (LMB) concentration was set to 50 nM and serially diluted as the positive control, while the highest concentrations of other compounds were set to 10 μM. The cells treated with various drugs or DMSO, were incubated at 37° C. and 5% CO2 for 1 h. Then, cells were fixed with 4% formaldehyde for 15 min at room temperature. The cells were washed and stained with 100 μL Hoechst 33342 working solution for 10 min at room temperature in dark, after which the cell fluorescence was imaged with the High-Content Imaging System, ImageXpress® (Molecular Devices) using the 20× objective. The filters were set for Hoechst (350/461 nm) and GFP/FITC (488/509 nm) (wavelength for excitation and emission maxima). The % effect of REV nuclear translocation was calculated with the following formula: % effect=([…]- signals from testing compounds; ILMB-signals of 50 nM LMB group; ICTRL-signals of vehicle control group.

[5] = test system: U87MG; test: CellTiter-Glo cell proliferation assay, U87MG; format: cell-based, human; settings: Homo sapiens, U-87 MG
Experimental: as §1, §2, §3

[6] = Pharmacokinetic profile in plasma; format: in vivo; settings: mouse, iv, I. V., mice
[7] = Ratio of brain to plasma; format: in vivo; settings: rats, 10 mg/kg PO
Experimental: (§4) Following collection, brain tissue was rinsed with cold saline, dried on filter paper, weighed and snap-frozen by placing on dry ice. All samples were stored frozen at approximately −80° C. until analysis. At the time of analysis, brain tissue was homogenized (homogenizing solution PBS, pH 7.4), mixed with internal standard in acetonitrile, vortexed, centrifuged, and supernatant was injected for analysis. Concentration of compounds in plasma was determined using LC-MS-MS instrumentation (API 4000, Triple Quadrupole LC/MS/MS Mass Spectrometer). Plasma samples were treated with the identical method (except homogenization step) and the concentration of compound in each matrix was calculated based on generated standard curves.

[8] = Pharmacokinetic profile summary; format: in vivo, mice or rats
Experimental: (§5) Blood was collected from mice (n=3, or 5) to contribute to the total of 10 time points (pre-dose, 5 min, 15 min, 30 min, 1 hour, 2 hours, 4 hours, 8 hours, 12 hours and 24 hours). At the designated time points, animals were anaesthetized under isoflurane, and approximately 110 μL of blood per time point was collected via retro-orbital puncture into pre-cooled K2EDTA tubes. Blood samples were put on wet ice and centrifuged (2000 g, 5 min at 4° C.) to obtain plasma within 30 minutes of sample collection. All samples were stored frozen at approximately −80° C. until analysis. Prior to analysis, samples were mixed with internal standard in acetonitrile, vortexed, centrifuged, and supernatant was injected for analysis. Concentration of compounds in plasma was determined using LC-MS-MS instrumentation (API 4000, Triple Quadrupole LC/MS/MS Mass Spectrometer). AUC values were calculated using Phoenix Win Nonlin 6.3 software package, PO-Noncompartmental model 200 (extravascular input).
as §4
The pharmacokinetic profile of test compounds in mice or rats was determined from several test compounds was determined using the methods described in Example 22.

[9] = Pharmacokinetic profile in plasma; format: in vivo; settings: P.O., mice
Experimental: as §5

[10] = test system: HCN2; test: CellTiter-Glo cell proliferation assay, HCN2 (normal brain); format: cell-based
Experimental: as §1, §2, §3

[11] = target: T1, XPO1; test: Compound washout assay in REV-GFP cells
Experimental: In order to evaluate the duration of XPO1 inhibition by test compounds on XPO1 protein after washout, washout assay was performed using REV-GFP cells. The test compounds and positive control were added to the cell well, and the plate was incubated the at 37° C. and 5% CO2 for 1 h. The drug-containing media were removed, the cells were washed, and the fresh media were added. The cells were imagined at the specified time points 0, 4, 24, 48, 72, and 96 hours to evaluate the inhibition of REV nuclear export. […] 4A. […] 4B. […] 4C.

[12] = REV-EGFP U2OS cells, 1 h, Table 2, read-out: Rev-GFP/EC50
[13] = first (or only) value of the cell
[14] = Homo sapiens, T98G, Table 11, read-out: Absolute IC50 (μM) T98G
[15] = Homo sapiens, U-251, Table 11, read-out: Absolute IC50 (μM) U251
[16] = Homo sapiens, LN-229, Table 11, read-out: Absolute IC50 (μM) LN-229

T1 sequence (O14980 whole entry): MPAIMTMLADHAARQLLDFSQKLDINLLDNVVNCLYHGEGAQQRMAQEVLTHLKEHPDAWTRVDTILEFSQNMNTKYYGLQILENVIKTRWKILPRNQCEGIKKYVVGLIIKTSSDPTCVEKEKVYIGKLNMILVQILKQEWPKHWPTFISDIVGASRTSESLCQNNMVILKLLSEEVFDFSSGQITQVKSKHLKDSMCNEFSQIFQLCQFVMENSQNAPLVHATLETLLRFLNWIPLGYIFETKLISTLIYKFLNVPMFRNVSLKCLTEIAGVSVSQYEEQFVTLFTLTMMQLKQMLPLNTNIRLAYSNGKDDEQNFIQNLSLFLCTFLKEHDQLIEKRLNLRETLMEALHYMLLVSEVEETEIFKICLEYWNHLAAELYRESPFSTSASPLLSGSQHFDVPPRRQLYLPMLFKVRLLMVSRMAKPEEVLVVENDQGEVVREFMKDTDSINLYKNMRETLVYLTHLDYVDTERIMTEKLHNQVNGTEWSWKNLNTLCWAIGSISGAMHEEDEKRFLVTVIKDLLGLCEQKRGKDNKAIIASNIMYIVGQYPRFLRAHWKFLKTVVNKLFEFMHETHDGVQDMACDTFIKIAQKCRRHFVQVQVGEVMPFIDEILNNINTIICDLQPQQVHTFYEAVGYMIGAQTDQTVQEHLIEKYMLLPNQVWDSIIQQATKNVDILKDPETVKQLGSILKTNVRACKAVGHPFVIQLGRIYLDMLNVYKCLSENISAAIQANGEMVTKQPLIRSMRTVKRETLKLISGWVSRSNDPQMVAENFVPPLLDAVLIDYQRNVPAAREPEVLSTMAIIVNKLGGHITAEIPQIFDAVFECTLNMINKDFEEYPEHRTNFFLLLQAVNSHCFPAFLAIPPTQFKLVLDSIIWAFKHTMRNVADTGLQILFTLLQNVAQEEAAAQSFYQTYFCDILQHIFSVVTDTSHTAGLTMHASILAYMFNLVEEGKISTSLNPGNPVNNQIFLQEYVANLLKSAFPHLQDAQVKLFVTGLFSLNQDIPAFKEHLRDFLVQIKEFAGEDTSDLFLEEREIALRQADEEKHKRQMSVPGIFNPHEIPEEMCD

Compound: N.N.[Cl][Pt][Cl] [Cisplatin, reference compound]
- IC50 ([1]; Table 11, read-out: Absolute IC50 (μM) T98G): 12.3 µM
- IC50 ([2]; Table 11, read-out: Absolute IC50 (μM) U251): 6 µM
- IC50 ([3]; Table 11, read-out: Absolute IC50 (μM) LN-229): 13 µM

Compound: O=C(/C=C\n1cnc(-c2cc(C(F)(F)F)cc(S(F)(F)(F)(F)F)c2)n1)NNc1ccccn1 [Compound II, (Z)-3-(3-(3-(Pentafluorosulfanyl)-5-(trifluoromethyl)phenyl)-1H-1,2,4-triazol-1-yl)-N′-(pyridin-2-yl)acrylohydrazide]
- EC50 [4, 12]: 0.0285 µM
- IC50 [4, 13]: 35.2 nM
- IC50 ([4]; second value of the cell): 21.8 nM
- EC50 ([4]; Table 13, read-out: Rev-GFP assay/μM): 0.035 µM
- IC50 [1, 14]: 1.9 µM
- IC50 ([1]; Homo sapiens, T98G, 72 hours, Table 1, read-out: Growth inhibition (IC50)): 1.92 µM
- IC50 ([5]; 72 h, U87MG, 72 hours, Table 1, read-out: Growth inhibition (IC50)): 630 nM
- IC50 ([5]; Table 9, first value column, read-out: U87MG IC50): 537 nM
- IC50 ([5]; Table 9, second value column, read-out: U87MG IC50): 723 nM
- AUC(0-t) [6]: 1620 ng·h/mL
- C0 [6]: 558 ng/mL
- clearance [6]: 10 mL/min/kg
- half-life [6]: 3.82 h
- MRT last ([6]; read-out: MRT0-last): 4.76 h
- Vd ([6]; read-out: Vdss): 3.2 L/kg
- IC50 [2, 15]: 2.3 µM
- IC50 ([2]; Homo sapiens, U-251, U251, 72 hours, Table 1, read-out: Growth inhibition (IC50)): 2.34 µM
- Kp at 0.25 h ([7]; rat, brain/plasma, 0.25 h): 0.716
- Kp at 1 h ([7]; rat, brain/plasma, 1 h): 0.954
- Kp at 8 h ([7]; rat, brain/plasma, 8 h): 1.4
- brain concentration (second number of pair) ([7]; 0.25 h): 301 ng/g
- plasma concentration (first number of pair) ([7]; 0.25 h): 419 ng/g
- brain concentration (second number of pair) ([7]; 1 h): 1191 ng/g
- plasma concentration (first number of pair) ([7]; 1 h): 1274 ng/g
- brain concentration (second number of pair) ([7]; 8 h): 937 ng/g
- plasma concentration (first number of pair) ([7]; 8 h): 677 ng/g
- IC50 [3, 16]: 0.8 µM
- IC50 ([3]; Homo sapiens, LN-229, 72 hours, Table 1, read-out: Growth inhibition (IC50)): 0.805 µM
- Kp ([8]; mouse, brain/plasma, 5 mpk/mice/AUC Ratio, read-out: B/P ratio): 1.58
- Cmax ([8]; mouse, po, 5 mg/kg, 5 mpk/mice, first number of Plasma/brain pair, read-out: Cmax/(ng/mL) Plasma): 1040 ng/mL
- Cmax ([8]; mouse, po, 5 mg/kg, 5 mpk/mice, second number of Plasma/brain pair, read-out: Cmax/(ng/mL) brain): 1770 ng/mL
- AUC ([8]; plasma, po, 10 mg/kg, 10 mpk): 4150 ng·h/mL
- half-life ([8]; plasma, mice or rats): 6.9 h
- Cmax ([8]; po, 10 mg/kg, plasma, 10 mpk, read-out: Cmax (ng/ml) plasma/10 mpk): 796 ng/mL
- AUG0-inf [9]: 13905 ng·h/mL
- Cmax ([9]; mouse, po): 1600 ng/mL
- Tmax ([9]; mouse, po): 2 h
- half-life ([9]; mouse, po): 4.72 h
- MRT inf ([9]; mouse, po, read-out: MRT0-inf): 7.84 h
- MRT last ([9]; mouse, po, read-out: MRT0-last): 6.9 h
- IC50 ([10]; 72 h, HCN2 normal cell line, 72 hours, Table 1, read-out: Growth inhibition (IC50)): 44700 nM
- IC50 ([10]; Table 9, read-out: HCN2 IC50): 44700 nM

Compound: O=C(/C=C\n1cnc(-c2cc(C(F)(F)F)cc(S(F)(F)(F)(F)F)c2)n1)NNc1nccs1 [Compound VI, (Z)-3-(3-(3-(Pentafluorosulfaneyl)-5-(trifluoromethyl)phenyl)-1H-1,2,4-triazol-1-yl)-N′-(thiazol-2-yl)acrylohydrazide]
- EC50 [4, 12]: 0.0252 µM
- IC50 [4, 13]: 25.2 nM
- IC50 [1, 14]: 2.6 µM
- IC50 [2, 15]: 3.8 µM
- IC50 [3, 16]: 1.7 µM

Compound: CCC(=C/[C@H](C)C/C=C/C(C)=C/[C@@H](C)C(=O)[C@@H](C)[C@H](O)[C@@H](C)C/C(C)=C/C(=O)O)/C=C/[C@@H]1OC(=O)C=C[C@@H]1C [LMB, Leptomycin B, reference compound]
- EC50 ([4]; Rev-GFP-U2OS cells, 1 h, FIG. 1B, read-out: EC50 in the Rev redistribution): 0.00011 µM
- sustained retention of REV protein in the nucleus post washout ([11]; 50 nM, 1 h treatment then washout): up to 24 hours
- effect on retention of REV protein in the nucleus ([11]; 50 nM, 72 hours post washout): 30%
- toxicity / cell number compared to the control ([11]; washout assay): showed toxicity
